Consider nine molecules from patent US20130252930A1 (BIOMARIN PHARMACEUTICAL INC., priority 2010, published 2013).

Read-outs that look alike come from different tables or passages of the source. Where only a bound is given, the exact number is not on record here.

The target in data set [1] is T1, CYP17 (human testicular microsome) (Homo sapiens, UniProt P05093).
T1 construct: using microsomal fraction from human testis (Celsis Cat #S00110) as the enzyme source; tissue Celsis S00110; host or cells: human testis microsomal fraction
T1 sequence (P05093 1-508): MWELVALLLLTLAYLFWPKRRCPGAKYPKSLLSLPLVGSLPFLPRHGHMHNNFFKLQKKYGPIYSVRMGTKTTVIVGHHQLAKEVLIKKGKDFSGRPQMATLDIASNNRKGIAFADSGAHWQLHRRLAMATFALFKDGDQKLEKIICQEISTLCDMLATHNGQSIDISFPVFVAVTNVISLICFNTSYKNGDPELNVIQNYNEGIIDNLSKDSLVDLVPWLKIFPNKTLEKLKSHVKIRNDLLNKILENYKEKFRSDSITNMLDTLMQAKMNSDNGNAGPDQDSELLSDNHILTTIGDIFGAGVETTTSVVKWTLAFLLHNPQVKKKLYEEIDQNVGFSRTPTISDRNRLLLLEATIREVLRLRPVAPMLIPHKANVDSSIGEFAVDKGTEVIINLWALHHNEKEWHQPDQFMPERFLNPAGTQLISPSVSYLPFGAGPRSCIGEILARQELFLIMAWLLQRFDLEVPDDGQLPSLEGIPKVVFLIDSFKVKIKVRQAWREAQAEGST
Kind of data set: CYP17 enzymatic assay (% inhibition at 1 nM) (Biological Example 12). The conditions noted are these: compound at 1 nM. The class given is biochemical.
Description: The assays were performed in 96-well plates. Typical assays were carried out in total 100 μL volume that included test compounds at 1 nM concentration, 1× reaction buffer, 0.5 mM NADPH, 1 μM 17α-hydroxypregnenolone, and 2.5 μL of human testicular microsome (Celsis. Cat #S00110). Reaction without test compound served as a positive control. Reactions were allowed to incubate at 37° C. for 90 min with gentle shaking. The reaction was stopped by directly applying the enzymatic reaction mixture to ELISA plate for evaluation of DHEA concentration according to manufacturer's protocol (IBL America). A standard curve (OD450 vs. DHEA concentration) was generated using purified DHEA. […] Percent inhibition (inhibition %) of the compound was calculated using normalized DHEA concentration based on following formula: 100−([DHEA] of compound/[DHEA] of positive control*100).

The target of data set [2] is T2, Cyp21 enzyme (Human HEK 293-Cyp21 stable transfected cells) (Homo sapiens, UniProt P08686).
T2 construct: expressed in transfected cells
T2 sequence (P08686 1-495): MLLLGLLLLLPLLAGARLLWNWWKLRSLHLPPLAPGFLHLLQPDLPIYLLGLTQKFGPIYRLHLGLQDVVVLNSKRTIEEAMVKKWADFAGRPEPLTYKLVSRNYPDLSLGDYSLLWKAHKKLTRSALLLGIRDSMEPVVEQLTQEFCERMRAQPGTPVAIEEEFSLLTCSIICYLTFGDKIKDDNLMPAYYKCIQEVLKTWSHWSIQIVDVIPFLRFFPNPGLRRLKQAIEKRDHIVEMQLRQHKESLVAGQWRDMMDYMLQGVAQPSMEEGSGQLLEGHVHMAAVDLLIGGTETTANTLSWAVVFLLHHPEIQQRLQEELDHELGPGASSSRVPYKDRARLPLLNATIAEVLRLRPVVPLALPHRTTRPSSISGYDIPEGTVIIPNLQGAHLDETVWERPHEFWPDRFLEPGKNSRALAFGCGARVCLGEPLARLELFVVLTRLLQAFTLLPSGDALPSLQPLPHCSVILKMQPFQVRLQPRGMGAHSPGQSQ
Description: CYP21-HEK293 enzymatic assay (IC50) (Biological Example 11). It is filed as cell-based.

Data set [3] is described as follows: Human liver microsome stability assay (Biological Example 8b). The conditions noted are these: liver microsomes, pH 7.4.
Description: The reaction was started with addition of excess NADPH (5 mg/mL, 15 μL in 0.1 M potassium phosphate buffer, 1.0 mM EDTA, pH 7.4), the total volume is 45 μL (compound final concentration was 1 μM). […] 50 μL of the supernatant was transferred from each well into a 96-well sample plate containing 50 μL of ultra-pure water (Millipore) for LC-MS/MS analysis.
For data set [4], the target named is T1, CYP17 (human testicular microsome). Description: CYP17 enzymatic assay (IC50) (Biological Example 4). It is filed as biochemical. The conditions noted are these: human testicular microsome; read-out: Biological Example No. 4: CYP17 enzymatic assay IC50.
Where [5] appears, read: read-out: CYP17 enzymatic assay % inhibition at 1 nM (Biological Example No. 12).
Where [6] appears, read: HEK 293-Cyp21 cells, read-out: CYP21-HEK293 enzymatic assay IC50 (Biological Example No. 11).
Where [7] appears, read: HEK 293-Cyp21 stable transfected cells, read-out: CYP21-HEK293 enzymatic assay IC50 (Biological Example No. 11).
Where [8] appears, read: read-out: Biological Example No. 12: CYP17 enzymatic assay % inhibition at 1 nM.
[9] abbreviates: HEK 293-Cyp21 cells, read-out: Biological Example No. 11: CYP21-HEK293 enzymatic assay IC50.

In general, inhibition refers to how much of the control response was suppressed. As usually defined, the IC50 is the midpoint of a concentration-inhibition curve. By half-life is commonly meant the time needed for the level to fall by half in the phase considered. Higher therefore signals slow decline. Regarding `C[C@]12CCC3C(CCC4=CC(=O)CC[C@@]43C)C1=CC=C2c1cnccn1` (stereo partly drawn) [Compound 291, (10R,13S)-10,13-dimethyl-17-(pyrazin-2-yl)-6,7,8,9,10,11,12,13-octahydro-1H-cyclopenta[a]phenanthren-3(2H)-one], the inhibition at 0.001 µM in data set [1] (setting [5]) was over 50%. Further, in data set [2] (setting [6]), the half-maximal inhibitory concentration (IC50) was over 100 nM. In addition, in data set [3], the half-life at 1 μM lay in the range of 1 to 50 min.
With `C[C@]12CCC3C(C=CC4=C(O)C(=O)CC[C@@]43C)C1=CC=C2c1cccnc1` (stereo partly drawn) [Compound 297, (10R,13S)-4-hydroxy-10,13-dimethyl-17-(pyridin-3-yl)-8,9,10,11,12,13-hexahydro-1H-cyclopenta[a]phenanthren-3(2H)-one], the inhibition at 0.001 µM in data set [1] (setting [5]) was over 50%. For the same molecule, in data set [2] (setting [6]), the half-maximal inhibitory concentration (IC50) was over 100 nM. Also, the half-life at 1 μM in data set [3] lay within 1 to 50 min.
On to `C=C1C[C@H]2C3=CC=C(c4cccnc4)[C@@]3(C)CC[C@@H]2[C@@]2(C)C=CC(=O)C=C12` [Compound 350, (10R,13S)-10,13-dimethyl-6-methylene-17-(pyridin-3-yl)-6,7,8,9,10,11,12,13-octahydro-3H-cyclopenta[a]phenanthren-3-one], for which the IC50 in data set [2] (setting [7]) was under 10 nM. Besides, the half-life at 1 μM in data set [3] was 1 to 50 min.
Take `C[C@]12CCC3C(CCC4=CC(=O)NCC[C@@]43C)C1=CC=C2c1cncc(C(F)F)c1` (stereo partly drawn) [Compound 390, (5aR,7aS)-8-(5-(difluoromethyl)pyridin-3-yl)-5a,7a-dimethyl-3,4,5,5a,5b,6,7,7a,11,12-decahydrocyclopenta[5,6]naphtho[1,2-d]azepin-2(10bH)-one]: the inhibition at 0.001 µM in data set [1] (setting [8]) is over 50%. Besides, the IC50 is under 11 nM in data set [4] and over 1000 nM in data set [2] (setting [9]).
With `CC1C[C@@H]2[C@H](CC[C@]3(C)C(c4cccnc4)CC[C@@H]23)[C@@]2(C)CCNC(=O)C=C12` (stereo partly drawn) [Compound 395, (5aR,7aS)-5a,7a,12-trimethyl-8-(pyridin-3-yl)-3,4,5,5a,5b,6,7,7a,8,9,10,10a,11,12-tetradecahydrocyclopenta[5,6]naphtho[1,2-d]azepin-2(10bH)-one], the half-maximal inhibitory concentration (IC50) in data set [2] (setting [7]) is under 10 nM. In addition, the half-life at 1 μM in data set [3] was 1 to 50 min.
As to `C[C@]12CCC(=O)C=C1C(=O)CC1C2CC[C@]2(C)C(c3cncc(F)c3)=CCC12` (stereo partly drawn) [Compound 417, (10R,13S)-17-(5-fluoropyridin-3-yl)-10,13-dimethyl-7,8,9,11,12,13,14,15-octahydro-1H-cyclopenta[a]phenanthrene-3,6(2H,10H)-dione], in data set [1] (setting [8]), the inhibition at 0.001 µM is over 50%. The concentration for half-maximal inhibition (IC50) in data set [4] is under 11 nM; in data set [2] (setting [9]), over 1000 nM.
In the case of `C[C@]12CCC(=O)CC1C(=O)CC1C2CC[C@]2(C)C(c3cncc(F)c3)=CCC12` (stereo partly drawn) [Compound 418, (10R,13S)-17-(5-fluoropyridin-3-yl)-10,13-dimethyl-4,5,7,8,9,11,12,13,14,15-decahydro-1H-cyclopenta[a]phenanthrene-3,6(2H,10H)-dione], the inhibition at 0.001 µM in data set [1] (setting [8]) was over 50%. Moreover, the figures for the IC50 in data set [4] and in data set [2] (setting [9]) were under 11 nM and over 1000 nM, respectively.
As to `CC1C[C@@H]2[C@H](CC[C@]3(C)C(c4cccnc4)CC[C@@H]23)[C@@]2(C)CCC(=O)C=C12` (stereo partly drawn) [Compound 420, (10R,13S)-6,10,13-trimethyl-17-(pyridin-3-yl)-6,7,8,9,10,11,12,13,14,15,16,17-dodecahydro-1H-cyclopenta[a]phenanthren-3(2H)-one], in data set [2] (setting [7]), the IC50 is under 10 nM. The half-life at 1 μM in data set [3] fell in the range of 1 to 50 min.
Regarding `CC1C[C@@H]2[C@H](CC[C@]3(C)C(c4cccnc4)CC[C@@H]23)[C@@]2(C)C=CC(=O)C=C12` (stereo partly drawn) [Compound 421, (10R,13S)-6,10,13-trimethyl-17-(pyridin-3-yl)-6,7,8,9,10,11,12,13,14,15,16,17-dodecahydro-3H-cyclopenta[a]phenanthren-3-one], in data set [2] (setting [7]), the IC50 was under 10 nM. For the same molecule, the half-life at 1 μM in data set [3] lay in the range of 1 to 50 min.
